Assays:
Experiment in all cases: radiometric filter-binding kinase assay, Kinase HotSpot
Conditions in all cases: compound 0.5 µM; ATP 10 µM
MAP4K2 (human) = MAP4K2 (human) (UniProt Q12851)
MAPK13 (human) = MAPK13 (human) (UniProt O15264)
RIPK2 (human) = RIPK2 (human) (UniProt O43353)
MAP3K3 (human) = MAP3K3 (human) (UniProt Q99759)
HCK (human) = HCK (human) (UniProt P08631)
TTK (human) = TTK (human) (UniProt P33981)
OXSR1 (human) = OXSR1 (human) (UniProt O95747)
MARK1 (human) = MARK1 (human) (UniProt Q9P0L2)
CAMK1G (human) = CAMK1G (human) (UniProt Q96NX5)
ABL1 (human) = ABL1 (human) (UniProt P00519)
SLK (human) = SLK (human) (UniProt Q9H2G2)
MYLK (human) = MYLK (human) (UniProt Q15746)
EPHB3 (human) = EPHB3 (human) (UniProt P54753)
GRK7 (human) = GRK7 (human) (UniProt Q8WTQ7)
DAPK1 (human) = DAPK1 (human) (UniProt P53355)
ERBB2 (human) = ERBB2 (human) (UniProt P04626)
STK24 (human) = STK24 (human) (UniProt Q9Y6E0)
PRKCD (human) = PRKCD (human) (UniProt Q05655)
Chain of PRKCD (human) (Q05655 whole entry, looked up): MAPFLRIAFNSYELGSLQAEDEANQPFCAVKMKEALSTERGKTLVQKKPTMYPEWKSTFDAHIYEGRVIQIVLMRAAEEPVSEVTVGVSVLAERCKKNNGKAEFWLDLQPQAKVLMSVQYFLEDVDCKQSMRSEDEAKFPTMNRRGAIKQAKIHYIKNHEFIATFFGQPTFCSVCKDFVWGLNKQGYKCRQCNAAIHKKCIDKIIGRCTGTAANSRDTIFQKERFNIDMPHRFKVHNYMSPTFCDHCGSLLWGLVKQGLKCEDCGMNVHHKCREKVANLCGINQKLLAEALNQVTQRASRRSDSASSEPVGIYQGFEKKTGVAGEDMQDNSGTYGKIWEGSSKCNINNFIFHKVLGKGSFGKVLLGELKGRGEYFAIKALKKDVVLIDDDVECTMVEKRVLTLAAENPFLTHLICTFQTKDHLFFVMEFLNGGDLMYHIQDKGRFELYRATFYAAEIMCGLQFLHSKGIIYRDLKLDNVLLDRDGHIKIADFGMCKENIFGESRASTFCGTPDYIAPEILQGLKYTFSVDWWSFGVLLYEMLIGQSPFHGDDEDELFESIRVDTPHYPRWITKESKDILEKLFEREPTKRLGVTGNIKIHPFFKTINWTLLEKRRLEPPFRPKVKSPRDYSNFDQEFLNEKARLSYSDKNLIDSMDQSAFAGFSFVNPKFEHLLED

CDK7 CCNH MNAT1 (human) = CDK7 CCNH MNAT1 (human) (UniProt P50613+P51948+P51946)
CSF1R (human) = CSF1R (human) (UniProt P07333)
[1] = tested on: SGK1 (human), O00141 [S422D]
HIPK2 (human) = HIPK2 (human) (UniProt Q9H2X6)
CDK9 CCNT1 (human) = CDK9 CCNT1 (human) (UniProt P50750+O60563)
CDK3 CCNE1 (human) = CDK3 CCNE1 (human) (UniProt Q00526+P24864)
Chain of CDK3 CCNE1 (human) (P24864 whole entry, looked up): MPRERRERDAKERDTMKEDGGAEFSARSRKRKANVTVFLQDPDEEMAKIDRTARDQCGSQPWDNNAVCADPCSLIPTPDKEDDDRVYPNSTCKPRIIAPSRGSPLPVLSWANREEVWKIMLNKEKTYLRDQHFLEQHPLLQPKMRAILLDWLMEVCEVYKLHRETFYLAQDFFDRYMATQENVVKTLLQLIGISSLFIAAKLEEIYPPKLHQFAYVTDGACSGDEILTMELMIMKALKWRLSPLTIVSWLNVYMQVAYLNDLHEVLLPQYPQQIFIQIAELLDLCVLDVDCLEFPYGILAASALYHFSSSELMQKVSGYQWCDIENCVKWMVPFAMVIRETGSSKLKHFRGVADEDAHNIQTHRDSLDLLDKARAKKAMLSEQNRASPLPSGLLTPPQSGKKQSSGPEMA
Chain of CDK3 CCNE1 (human) (Q00526 whole entry, looked up): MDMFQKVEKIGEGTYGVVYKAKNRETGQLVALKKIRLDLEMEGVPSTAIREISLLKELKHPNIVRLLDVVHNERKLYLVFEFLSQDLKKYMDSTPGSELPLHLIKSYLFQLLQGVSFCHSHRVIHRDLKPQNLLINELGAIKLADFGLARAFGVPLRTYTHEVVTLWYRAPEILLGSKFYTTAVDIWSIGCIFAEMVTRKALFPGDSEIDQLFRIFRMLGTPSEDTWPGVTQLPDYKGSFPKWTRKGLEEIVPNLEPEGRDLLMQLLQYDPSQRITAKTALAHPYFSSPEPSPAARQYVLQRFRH

NEK3 (human) = NEK3 (human) (UniProt P51956)
PRKCA (human) = PRKCA (human) (UniProt P17252)
MAP3K5 (human) = MAP3K5 (human) (UniProt Q99683)
IKBKB (human) = IKBKB (human) (UniProt O14920)
ALK (human) = ALK (human) (UniProt Q9UM73)
EPHA8 (human) = EPHA8 (human) (UniProt P29322)
MERTK (human) = MERTK (human) (UniProt Q12866)
MUSK (human) = MUSK (human) (UniProt O15146)
PRKD2 (human) = PRKD2 (human) (UniProt Q9BZL6)
RPS6KB1 (human) = RPS6KB1 (human) (UniProt P23443)
SRC (human) = SRC (human) (UniProt P12931)
Chain of SRC (human) (P12931 whole entry, looked up): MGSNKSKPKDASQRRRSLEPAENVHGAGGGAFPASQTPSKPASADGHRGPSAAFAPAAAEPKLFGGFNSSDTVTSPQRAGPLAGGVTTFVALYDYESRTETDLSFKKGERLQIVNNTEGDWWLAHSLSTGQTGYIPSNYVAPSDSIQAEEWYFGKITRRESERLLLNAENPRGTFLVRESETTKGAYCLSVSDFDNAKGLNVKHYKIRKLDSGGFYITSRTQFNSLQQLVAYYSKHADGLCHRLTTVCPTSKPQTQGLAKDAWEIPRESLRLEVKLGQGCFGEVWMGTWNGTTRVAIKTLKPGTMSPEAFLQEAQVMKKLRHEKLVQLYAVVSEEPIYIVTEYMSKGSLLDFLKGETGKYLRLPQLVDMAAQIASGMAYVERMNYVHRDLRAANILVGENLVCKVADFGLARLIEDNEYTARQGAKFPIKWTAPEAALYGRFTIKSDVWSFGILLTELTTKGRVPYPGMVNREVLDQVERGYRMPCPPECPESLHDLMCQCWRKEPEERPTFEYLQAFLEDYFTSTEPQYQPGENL

RPS6KA6 KD1 KD2 (human) = RPS6KA6 KD1 KD2 (human) (UniProt Q9UK32)
CDK5 CDK5R1 p25 (human) = CDK5 CDK5R1 p25 (human) (UniProt Q00535+Q15078)
AKT3 (human) = AKT3 (human) (UniProt Q9Y243)
Chain of AKT3 (human) (Q9Y243 whole entry, looked up): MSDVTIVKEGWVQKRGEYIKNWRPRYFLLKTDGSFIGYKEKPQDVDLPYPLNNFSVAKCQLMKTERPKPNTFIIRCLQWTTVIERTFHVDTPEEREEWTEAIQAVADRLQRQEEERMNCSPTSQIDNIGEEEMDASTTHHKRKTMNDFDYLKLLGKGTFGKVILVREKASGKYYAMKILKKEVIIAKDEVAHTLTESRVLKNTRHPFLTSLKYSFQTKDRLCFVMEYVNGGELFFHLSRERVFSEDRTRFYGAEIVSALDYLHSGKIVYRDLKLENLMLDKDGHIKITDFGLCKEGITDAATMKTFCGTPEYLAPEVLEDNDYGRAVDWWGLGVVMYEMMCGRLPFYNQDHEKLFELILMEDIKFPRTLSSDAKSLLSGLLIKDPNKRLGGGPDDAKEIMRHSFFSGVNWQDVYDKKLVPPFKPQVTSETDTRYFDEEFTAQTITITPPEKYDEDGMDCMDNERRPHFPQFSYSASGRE

VRK1 (human) = VRK1 (human) (UniProt Q99986)
PAK4 (human) = PAK4 (human) (UniProt O96013)
NTRK3 (human) = NTRK3 (human) (UniProt Q16288)
Chain of NTRK3 (human) (Q16288 whole entry, looked up): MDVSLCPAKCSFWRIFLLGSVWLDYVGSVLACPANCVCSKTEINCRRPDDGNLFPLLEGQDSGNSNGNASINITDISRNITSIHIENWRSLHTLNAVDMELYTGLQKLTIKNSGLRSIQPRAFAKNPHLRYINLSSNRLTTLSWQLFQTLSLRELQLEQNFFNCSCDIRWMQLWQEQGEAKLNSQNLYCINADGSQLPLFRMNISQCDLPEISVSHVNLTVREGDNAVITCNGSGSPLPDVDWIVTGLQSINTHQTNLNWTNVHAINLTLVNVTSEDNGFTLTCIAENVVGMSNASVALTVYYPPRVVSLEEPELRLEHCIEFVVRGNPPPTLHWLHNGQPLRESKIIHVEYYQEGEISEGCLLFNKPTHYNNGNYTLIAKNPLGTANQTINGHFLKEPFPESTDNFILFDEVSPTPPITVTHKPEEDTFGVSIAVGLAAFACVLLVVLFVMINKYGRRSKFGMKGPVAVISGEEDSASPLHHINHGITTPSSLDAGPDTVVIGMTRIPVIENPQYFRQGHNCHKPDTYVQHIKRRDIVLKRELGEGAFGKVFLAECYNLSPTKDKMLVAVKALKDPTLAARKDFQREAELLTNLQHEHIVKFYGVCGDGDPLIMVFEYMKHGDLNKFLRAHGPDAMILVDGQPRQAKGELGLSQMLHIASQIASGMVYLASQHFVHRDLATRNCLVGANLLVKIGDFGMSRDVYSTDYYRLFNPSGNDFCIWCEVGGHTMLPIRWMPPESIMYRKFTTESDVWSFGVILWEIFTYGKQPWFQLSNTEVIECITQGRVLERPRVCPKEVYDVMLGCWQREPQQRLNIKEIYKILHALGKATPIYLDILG

Chain of TTK (human) (P33981 whole entry, looked up): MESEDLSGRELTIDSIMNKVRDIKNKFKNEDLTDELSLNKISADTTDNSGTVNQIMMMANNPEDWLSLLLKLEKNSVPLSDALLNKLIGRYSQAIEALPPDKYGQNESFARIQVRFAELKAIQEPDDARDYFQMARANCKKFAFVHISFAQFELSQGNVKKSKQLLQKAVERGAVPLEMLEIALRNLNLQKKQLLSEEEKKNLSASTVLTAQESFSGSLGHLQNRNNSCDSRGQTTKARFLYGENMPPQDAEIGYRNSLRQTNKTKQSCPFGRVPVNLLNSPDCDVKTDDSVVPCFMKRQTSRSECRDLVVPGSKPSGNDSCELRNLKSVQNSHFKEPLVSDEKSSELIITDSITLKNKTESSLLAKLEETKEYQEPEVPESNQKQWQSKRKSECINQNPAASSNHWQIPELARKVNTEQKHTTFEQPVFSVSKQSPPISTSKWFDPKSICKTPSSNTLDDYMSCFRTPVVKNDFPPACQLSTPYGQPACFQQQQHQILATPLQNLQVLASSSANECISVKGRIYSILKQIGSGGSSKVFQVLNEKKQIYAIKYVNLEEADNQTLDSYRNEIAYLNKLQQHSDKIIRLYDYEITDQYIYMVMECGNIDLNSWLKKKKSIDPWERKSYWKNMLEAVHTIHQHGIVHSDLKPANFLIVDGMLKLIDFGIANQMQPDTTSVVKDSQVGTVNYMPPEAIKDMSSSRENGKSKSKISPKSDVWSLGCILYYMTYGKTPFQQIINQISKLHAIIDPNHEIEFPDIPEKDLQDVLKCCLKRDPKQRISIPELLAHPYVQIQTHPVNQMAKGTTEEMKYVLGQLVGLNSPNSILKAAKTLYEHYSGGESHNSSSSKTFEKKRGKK
Chain of MAPK13 (human) (O15264 whole entry, looked up): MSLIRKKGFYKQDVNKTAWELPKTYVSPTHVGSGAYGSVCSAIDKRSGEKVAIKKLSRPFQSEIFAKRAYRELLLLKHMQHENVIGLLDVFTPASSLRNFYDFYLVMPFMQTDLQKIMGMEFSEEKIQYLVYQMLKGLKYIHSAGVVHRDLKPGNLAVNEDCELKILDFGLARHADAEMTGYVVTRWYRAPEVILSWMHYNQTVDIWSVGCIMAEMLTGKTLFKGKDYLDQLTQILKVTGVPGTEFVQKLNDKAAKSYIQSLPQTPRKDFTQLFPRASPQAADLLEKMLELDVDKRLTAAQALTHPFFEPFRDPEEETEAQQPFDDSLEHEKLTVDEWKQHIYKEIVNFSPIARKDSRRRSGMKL
Chain of HCK (human) (P08631 whole entry, looked up): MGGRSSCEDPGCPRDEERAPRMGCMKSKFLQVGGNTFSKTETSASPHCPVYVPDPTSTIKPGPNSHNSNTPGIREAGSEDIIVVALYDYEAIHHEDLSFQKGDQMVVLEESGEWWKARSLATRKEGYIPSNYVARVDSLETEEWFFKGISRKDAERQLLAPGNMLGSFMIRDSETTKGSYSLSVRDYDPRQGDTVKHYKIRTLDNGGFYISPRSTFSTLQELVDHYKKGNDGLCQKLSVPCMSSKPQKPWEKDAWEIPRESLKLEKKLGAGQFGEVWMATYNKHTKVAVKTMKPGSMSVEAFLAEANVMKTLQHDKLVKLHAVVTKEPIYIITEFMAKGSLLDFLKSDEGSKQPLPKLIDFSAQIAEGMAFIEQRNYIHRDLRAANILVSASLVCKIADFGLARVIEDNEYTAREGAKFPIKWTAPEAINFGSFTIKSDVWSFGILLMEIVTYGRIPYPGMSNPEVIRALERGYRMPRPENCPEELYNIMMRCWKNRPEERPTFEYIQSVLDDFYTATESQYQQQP

## Cn1cc(/C=C2\C(=O)Nc3ccc(S(N)(=O)=O)cc32)c2ccccc21
MAP4K2 (human)
  residual activity: 17.4%
MAPK13 (human)
  residual activity: 105%
RIPK2 (human)
  residual activity: 74.3%
MAP3K3 (human)
  residual activity: 80.7%
HCK (human)
  residual activity: 50%
TTK (human)
  residual activity: 97.3%
OXSR1 (human)
  residual activity: 93.7%
MARK1 (human)
  residual activity: 40.4%
CAMK1G (human)
  residual activity: 89.2%
ABL1 (human)
  residual activity: 52.5%
SLK (human)
  residual activity: 28.6%
MYLK (human)
  residual activity: 95%
EPHB3 (human)
  residual activity: 93.2%
GRK7 (human)
  residual activity: 20.9%
DAPK1 (human)
  residual activity: 98.9%
ERBB2 (human)
  residual activity: 120%
STK24 (human)
  residual activity: 80.2%
PRKCD (human)
  residual activity: 91.3%
CDK7 CCNH MNAT1 (human)
  residual activity: 73.7%
CSF1R (human)
  residual activity: 82.5%
[1]
  residual activity: 71.8%
HIPK2 (human)
  residual activity: 82.6%
CDK9 CCNT1 (human)
  residual activity: 65%
CDK3 CCNE1 (human)
  residual activity: 90.3%
NEK3 (human)
  residual activity: 66.2%
PRKCA (human)
  residual activity: 123%
MAP3K5 (human)
  residual activity: 53.2%
IKBKB (human)
  residual activity: 101%
ALK (human)
  residual activity: 72.1%
EPHA8 (human)
  residual activity: 83.4%
MERTK (human)
  residual activity: 45.9%
MUSK (human)
  residual activity: 105%
PRKD2 (human)
  residual activity: 87.2%
RPS6KB1 (human)
  residual activity: 44.3%
SRC (human)
  residual activity: 45.1%
RPS6KA6 KD1 KD2 (human)
  residual activity: 6.55%
CDK5 CDK5R1 p25 (human)
  residual activity: 58%
AKT3 (human)
  residual activity: 97.4%
VRK1 (human)
  residual activity: 103%
PAK4 (human)
  residual activity: 86.2%
NTRK3 (human)
  residual activity: 1.18%

## COc1cccc(-c2cc(=O)c3ccccc3o2)c1N
MAP4K2 (human)
  residual activity: 81.7%
MAPK13 (human)
  residual activity: 99.8%
RIPK2 (human)
  residual activity: 87.5%
MAP3K3 (human)
  residual activity: 83%
HCK (human)
  residual activity: 91.6%
TTK (human)
  residual activity: 99%
OXSR1 (human)
  residual activity: 91.2%
MARK1 (human)
  residual activity: 96.9%
CAMK1G (human)
  residual activity: 96.5%
ABL1 (human)
  residual activity: 93.9%
SLK (human)
  residual activity: 102%
MYLK (human)
  residual activity: 98.9%
EPHB3 (human)
  residual activity: 91.9%
GRK7 (human)
  residual activity: 103%
DAPK1 (human)
  residual activity: 90.9%
ERBB2 (human)
  residual activity: 106%
STK24 (human)
  residual activity: 108%
PRKCD (human)
  residual activity: 106%
CDK7 CCNH MNAT1 (human)
  residual activity: 99.9%
CSF1R (human)
  residual activity: 101%
[1]
  residual activity: 102%
HIPK2 (human)
  residual activity: 116%
CDK9 CCNT1 (human)
  residual activity: 93.6%
CDK3 CCNE1 (human)
  residual activity: 109%
NEK3 (human)
  residual activity: 102%
PRKCA (human)
  residual activity: 102%
MAP3K5 (human)
  residual activity: 103%
IKBKB (human)
  residual activity: 92.5%
ALK (human)
  residual activity: 84.1%
EPHA8 (human)
  residual activity: 96.3%
MERTK (human)
  residual activity: 98%
MUSK (human)
  residual activity: 94.2%
PRKD2 (human)
  residual activity: 103%
RPS6KB1 (human)
  residual activity: 98%
SRC (human)
  residual activity: 92.6%
RPS6KA6 KD1 KD2 (human)
  residual activity: 95.2%
CDK5 CDK5R1 p25 (human)
  residual activity: 87.5%
AKT3 (human)
  residual activity: 101%
VRK1 (human)
  residual activity: 89.4%
PAK4 (human)
  residual activity: 88.1%
NTRK3 (human)
  residual activity: 99.3%
